# Tests used:
# [1] = test system: tumor cells; conditions: literature reports; cited from earlier work
# [2] = test system: transfected C6 cells; test: 3H-thymidine incorporation into transfected C6 cells in serum-free medium; format: cell-based, rat; conditions: 48 hours, 50 μg/ml
# Text: The mechanism underlying the loss of tumorigenicity for the antisense IGF-1 transfectants is linked to enhanced immunogenicity. Applicant notes a striking infiltration of mononuclear cells surrounding the injected C6 transfected cells in vivo. No such infiltrates ere apparent for the parental (IGF-I positive) cells in he tumors formed in vivo. […] This possibility is substantiated by the examples provided below. This immunological component may exist together with an antiproliferative effect. C6 cellular proliferation is likely to involve factors in addition to IGF-1, however, since the rate of incorporation of ^3H-thymidine into transfected C6 cells cultured for 48 hours in serum-free medium was unaffected by the presence of ZnSO^4 or IGF-I protein (50 μg/ml) in the culture medium (data not shown).
Compound,tumor development in vivo [1],rate of incorporation of 3H-thymidine in the presence of IGF-I protein [2]
C[C@@H](O)[C@@H]1NC(=O)[C@H](CCCCN)NC(=O)[C@@H](Cc2c[nH]c3ccccc23)NC(=O)[C@H](Cc2ccccc2)NC(=O)[C@@H](NC(=O)[C@H](N)Cc2ccccc2)CSSC[C@@H](C(=O)N[C@H](CO)[C@@H](C)O)NC1=O [octreotide],not blocked,
IGF-I protein: Insulin-like growth factor I protein added to the culture medium,,unaffected
